Measurements reported in patent US12673972B2, “Lung-specific targeting-peptide (LTP), compositions, and uses thereof” (University of Pittsburgh—Of the Commonwealth System of …, priority 2019, dated 2026).
Entries after “also recorded” stand apart in the source; their conditions may differ. No end group written: not given here. Cy5.5 = Cy5.5 fluorescent label

What was measured:
CD1 mice = assay: In vivo biodistribution of fluorescently labeled peptides in mice (IVIS ex vivo organ imaging, confocal microscopy); conditions: for cardiac uptake / uptake in lung epithelial tissue: 10 mg/kg intravenously, 15 minutes circulation, CD1 mice; for uptake in lung epithelial tissue: confocal and IVIS; for greater lung than liver uptake (lung-to-liver ratio of fluorescent intensity) / lung transduction at lower doses: S7A 5 mg/kg, R11A 5 and 1 mg/kg, 15 minutes, ex vivo IVIS; for lung transduction at lower doses: even at the lowest injected dose
Method: CTP-B, CTP-P2A, CTP-S7A, CTP-R11A and a random negative control peptide (RAN), were further tested in vivo in mice, in triplicate. Wild-type, 6-week old, male and female CD1 mice were weighed and anesthetized. Mice were injected intravenously with the various peptides, each at a dose of 10 mg/kg. Peptides circulated for 15 minutes, after which mice were euthanized and fixed with 3 ml of 10% formalin injected through the left ventricular apex. Multiple organs (heart, lungs, liver, kidney, spleen, brain, large intestines, small intestines, testes/ovaries, and eyeball) were harvested, placed in a 12-well plate, and immediately imaged using a Perkin-Elmer IVIS imaging system using the relevant excitation-emission laser/detector wavelengths. After the imaging was complete, organs were placed in 10% formalin at room temperature. Following overnight fixation in formalin, organs were transferred to 30% sucrose at 4° C. Following overnight incubation in sucrose, all organs were embedded and frozen in optical cutting medium, 10 μm thick sections were cut, mounted with DAPI, and cover-slipped. Slides were imaged using confocal fluorescent microscopy using the same parameters for imaging between mice, peptides and organs, to allow for comparison and quantification of fluorescence intensities in the relevant regions of interest.
Injections were repeated in a total of 9 CD1 mice with identical lung uptake; all images were acquired with the same confocal microscope parameters to allow for cross-animal comparison; however, at the same laser intensity, the lung sample was saturated. […] Wild-type mice were injected with Cy5.5 labeled R11A at a dose of 10 mg/kg, and euthanized mice after 15 minutes; multiple organs were then harvested for imaging.
Wild-type CD1 mice were then injected with lower doses of fluorescently labeled S7A peptide (5 mg/kg) or R11A peptide (5 and 1 mg/kg). The peptides were allowed to circulate for 15 minutes, mice were sacrificed, multiple organs were harvested, and ex vivo IVIS imaging was performed. Ex vivo imaging of organs harvested from mice without injected peptides was performed in order to subtract background auto-fluorescent signal from the test organs. IVIS imaging of multiple organs was conducted after administering decreasing doses of peptide from 5 to 1 mg/kg. […] Quantification of IVIS imaging for total fluorescent intensity for heart, lung, liver, kidney, spleen, and brain is shown in FIG. 4. Using the fluorescent intensity values, Lung-to-Liver ratios for both peptides were calculated at the tested doses.

[1] = tested on: human bronchial epithelial cells from patients with Cystic Fibrosis (CF); assay: Confocal uptake in human bronchial epithelial cells from patients with Cystic Fibrosis; format: cell-based; conditions: for uptake by confocal microscopy: 10 μM, 0, 2, 10 or 30 minutes at 37° C./5% CO2, FIG. 6A; for quantification of fluorescence intensity (uptake): FIG. 6B
Method: Cells were grown on coverslips, incubated with 10 μM of S7A peptide, R11A peptide, or a random, negative control peptide, for 0, 2, 10, or 30 minutes at 37° C./5% CO2. Following incubation, cells were washed with prewarmed PBS, cross-stained with DAPI, fixed, and mounted on slides for confocal microscopy. […] In the time 0 and 2 minute timepoints, only the DAPI nuclear stain is visible, with cytoplasmic staining for the LTPs growing visible at 10 minutes and dominating the field of view at 30 minutes.

H9C2 cells [2] = assay: FACS uptake of Cy5.5-labeled alanine-scan peptides in H9C2 cells; format: cell-based, rat; conditions: 10 μM peptide, 30 minutes at 37° C., FACS gated on live cells
Method: An alanine scan of the cardiac targeting peptide (CTP, APWHLSSQYSRT, SEQ ID NO: 3) was performed, in which each amino acid was replaced sequentially with alanine, resulting in 11 different “alanine mutant” versions of CTP. Solid phase peptide synthesis of the alanine mutants of CTP fluorescently labeled with Cyanine 5.5 (Cy5.5) was conducted using standard fluorenylmethoxycarbonyl protecting group organic synthesis (FMOC) conditions on a Liberty CEM Microwave Peptide Synthesizer. Cleavage of the fully-protected CTP peptide fragment from the 2-chlorotrityl solid support was accomplished using 1% Trifluoroacetic acid (TFA)/methylene chloride (DCM), followed by elution of the peptide using TFA+scavengers, followed by isolation of the crude product by precipitation in Diethyl Ether (EtO2). Fluorescent dye labelling of the N-terminal amine was performed in solution using Cy5.5-NHS (Lumiprobe, Inc). The resulting crude cyclic CTP-Cy5.5 peptide was purified by preparative C-5 Reversed Phase High Performance Liquid Chromatography (RP-HPLC) on a Waters Delta Prep 4000 chromatography system, using standard Acetonitrile/0.1% TFA gradient conditions. Analytical C-5 RP-HPLC characterization on a Waters Alliance chromatography system followed by Matrix-Assisted Laser Desorption/Ionization Time-Of-Flight Mass Spectrometry (MALDI-TOF-MS) analysis on an Applied Biosystems Voyager workstation was used to confirm the expected mass and purity of the final product. For the purposes of nomenclature, the CTP mutants are identified by the original amino acid followed by its numbered position and A to indicate alanine at the substituted position, e.g., R11A indicates arginine at position 11 of CTP substituted with alanine (APWHLSSQYSAT, SEQ ID NO: 2). CTP was also synthesized as a 6-amino acid N-terminal peptide (CTP-A, APWHLS, SEQ ID NO: 4), and as a 6-amino acid C-terminal peptide (CTP-B, SQYSRT, SEQ ID NO: 5).
For in vitro testing, a rat cardiomyoblast cell line, H9C2 was incubated with each of the alanine-scan peptides, including parental peptide CTP and variants CTP-A and CTP-B; each condition was run in triplicate. For the incubation, peptides were received as lyophilized powders and made into 10 mM stock solutions in DMSO. The stock solution was diluted in culture medium to a final concentration of 10 μM for each peptide, and incubated for 30 minutes at 37° C. with H9C2 cells. Following the incubation period, cells were washed extensively with PBS, trypsinized and fluorescence activated cell sorting (FACS) was performed in biological triplicates. […] There was almost a 3-4 fold increase in median fluorescence intensities compared with CTP for S7A peptide and R11A peptide (FIG. 1).

[3] = tested on: human bronchial epithelial cells from patients with CF; assay: Uptake at 4° C with fluorescently labeled transferrin (Tf-488) in human bronchial epithelial cells from patients with CF; format: cell-based; conditions: for uptake relative to random peptide: 10 μM, 1 hour on ice at 4° C. then 37° C., times 0, 5 and 30 minutes; for energy dependence of internalization: occurred even at 4° C.
Method: To further characterize uptake of S7A peptide and R11A peptide in cells of interest, human bronchial epithelial cells from patients with CF were grown on cover-slips. Cells were starved at 37° C. for 1 hour in minimal media (MEM media+0.5% Bovine Serum Albumin (BS)+25 mM Hepes buffer at pH 7.4), washed with cold PBS, incubated on ice at 4° C. with fluorescently labeled transferrin (Tf-488) and 10 μM of test peptide (Random, S7A peptide, or R11A peptide) for 1 hour before being shifted to a 37° C. water-bath. Cover-slips were fixed at times 0, 5 and 30 minutes, with random peptide samples fixed only at 0 and 30 minutes.

H9C2 cells [4] = assay: Confocal microscopy of H9C2 cells transduced with linear or cyclic CTP; format: cell-based, rat; conditions: for Mean (fluorescence) / Subtraction (mean minus background fluorescence): transduced H9C2 cells, confocal quantification
Excerpt: The cardiac targeting peptide (CTP, SEQ ID NO: 3) was cyclized by establishing a chemical bond between the amino and carboxyl termini (between the alpha-amino group of N-terminal Lysine and the C-terminus of the peptide sequence), and subsequently labelled with a Cy5.5 fluorescent label at the epsilon amino group of the N-terminal lysine.
The cyclic form of CTP was then compared to the linear form of CTP using confocal microscopy of transduced H9C2 cells, using the protocol as described in Example 1 above. […] Quantification of the fluorescence intensity, as shown in FIG. 10B and Table 2, confirmed the enhanced fluorescent activity.

Row | Substance | cardiac uptake (CD1 mice) | uptake in lung epithelial tissue (CD1 mice) | greater lung than liver uptake (lung-to-liver ratio of fluorescent intensity) (CD1 mice) | lung transduction at lower doses (CD1 mice) | uptake by confocal microscopy [1] | quantification of fluorescence intensity (uptake) ([1]; 10 μM) | uptake and fluorescence intensity compared between test peptides ([1]; 10 μM, confocal microscopy, FIG. 6A) | uptake of the fluorescently labeled peptide into H9C2 cells as compared to full-length, parental CTP (H9C2 cells [2]) | uptake relative to random peptide [3] | energy dependence of internalization [3] | uptake of cyclic format relative to linear format (H9C2 cells [4]; confocal imaging, FIG. 10A) | Mean (fluorescence) (H9C2 cells [4]) | Subtraction (mean minus background fluorescence) (H9C2 cells [4])
1 | APWHLSAQYSRT (also: Cy5.5 label, place not given here) [S7A, Lung-specific targeting peptide, alanine mutant of CTP; tested Cy5.5-labeled] | did not show significant cardiac uptake; also recorded: without significant cardiac uptake | robust uptake | approximately 2.5 fold | Robust lung transduction | robust uptake | significantly high uptake | higher uptake and fluorescence intensity even than R11A peptide | statistically significantly higher uptake | robust uptake | not energy-dependent |  |  | 
2 | APWHLSSQYSAT (also: Cy5.5 label, place not given here) [R11A, Lung-specific targeting peptide, alanine mutant of CTP; tested Cy5.5-labeled] | did not show significant cardiac uptake; also recorded: without significant cardiac uptake | Robust lung uptake | 8-9 fold | Robust lung transduction | robust uptake | significantly high uptake |  | statistically significantly higher uptake | robust uptake | not energy-dependent |  |  | 
3 | AAWHLSSQYSRT [CTP-P2A] | results similar to what was predicted from in vitro H9C2 transduction |  |  |  |  |  |  | statistically significantly higher uptake |  |  |  |  | 
4 | KAPWHLSSQYSRT (cyclo(K(Cy5.5)APWHLSSQYSRT)) [Cyclic CTP, CTP cyclized via N-terminal lysine alpha-amino group to C-terminus, Cy5.5 at lysine epsilon amino group] |  |  |  |  |  |  |  |  |  |  | enhanced uptake relative to the linear format | 521.590 | 371.123
5 | APWHLSSQYSRT [Linear CTP, cardiac targeting peptide described in WO2019226785A1, parental peptide, reference compound] |  |  |  |  |  |  |  |  |  |  |  | 362.478 | 134.777
6 | SQYSRT [CTP-B, 6-amino acid C-terminal peptide of CTP] | results similar to what was predicted from in vitro H9C2 transduction |  |  |  |  |  |  | statistically significantly higher uptake |  |  |  |  | 
